Laboratory results: patent US6903052B2, “Nematicidal compositions and methods” (Divergence, Inc., priority 2002, dated 2005)

How the values were obtained:
[1] = test system: free-living, animal parasitic, and plant parasitic nematodes; assay: Nematicidal activity across the spectrum of nematodes, summary statement (Example 8); type: cell-based
Method: (§1) Briefly, the indicated fatty acid emulsions were added and rapidly mixed by swirling. Nematode viability was scored by visual observation and motility assays 24 hours following addition of emulsions (48 hours for plant parasitic nematodes Meloidogyne and Heterodera species). The fatty acid emulsions tested were methyl esters of nonanoic (pelargonic) acid, ricinelaidic acid, ricinoleic acid, vernolic acid, linoleic acid, and oleic acid. […] Results shown are mean % values obtained from multiple independent experiments
(§2) The Caenorhabiditis elegans were mixed stage populations. Similar effects seen on several other free-living nematode species. The Parastrongyloides trichosuri (parasite of Australian bushtail possum) were dauer-like infective 3rd stage larva. Similar effects are also seen against free-living stages. The Meloidogyne incognita and Meloidogyne javanica (root knot nematode) were 2nd stage juveniles (dauer-like infective stage). The Heterodera glycines (soybean cyst nematode) were 2nd stage juveniles (dauer-like infective stage). Finally, the Pratylenchus scribneri (corn lesion nematode) were mixed stage populations.

[2] = test system: tomato seedlings; assay: Phytotoxicity evaluation on tomato seedlings; type: in vivo; conditions: 250 μl of 1% emulsion applied to stem-media interface of two-week seedlings
Method: Sterilized tomato seeds were germinated in magenta jars containing Gamborg's agar media. After two weeks of growth, seedlings were treated with 250 μl of 1% fatty acid methyl ester emulsion (nonanoic acid, ricinoleic acid, ricinelaidic acid, oleic acid, or a control emulsion lacking any fatty acid), applied directly to the stem-media interface. Tomato seedlings were scored at various times after application of emulsions.

[3] = test system: B. malayi; assay: Nematicidal activity of tween-based emulsions against microfilarial nematodes; type: cell-based, Brugia malayi
Method: To each well, tween-based fatty acid emulsions were added and rapidly mixed by swirling. Nematode microfilaria viability was scored by visual observation of motility at 24 and 48 hours following addition of emulsions. The fatty acid emulsions tested were methyl esters of ricinoleic acid, vernolic acid, ricinelaidic acid, oleic acid, and control emulsions lacking fatty acids. The results of this study are presented in Table 7 as the percentage of non-motile microfilaria 24 hours after inoculation and in Table 8 as the percentage of non-motile microfilaria 48 hours after inoculation

[4] = test system: C. elegans; assay: Nematicidal activity of fatty acid methyl ester emulsions, spectrum (Example 8); type: cell-based, Caenorhabditis elegans; conditions: C. elegans mixed stage
Method: as §1, §2

[5] = test system: C. elegans; assay: Nematicidal activity of emulsions made with Tween-20 (replacing Igepal CO 630) against C. elegans; type: cell-based, Caenorhabditis elegans; conditions: Tween-20 emulsion
Method: Some nematodes assayed as described in Example 9 lacked tolerance to emulsions made with the surfactant Igepal CO 630. For this reason some assays were repeated with Tween-20-based emulsions.
Briefly, 1 ml 1% stock solution emulsions were prepared by mixing 10 μl of fatty acid methyl ester with 20 μl of the surfactant Tween-20 in a 1.5 ml eppendorf tube. After careful mixing of fatty acid and Tween-20, 850 μl of ddH20 was added and mixed by gentle pipetting until a homogeneous solution was obtained. Finally, 120 μl of pure isopropanol was added and mixed by gentle pipetting. This stock solution was then used to produce various fatty acid methyl ester dilution emulsions in 24-well plate assays.

[6] = test system: P. trichosuri; assay: Nematicidal activity of fatty acid methyl ester emulsions, spectrum (Example 8); type: cell-based, Parastrongyloides trichosuri; conditions: P. trichosuri infective 3rd stage larva
Method: as §1, §2

[7] = test system: H. glycines; assay: as above; type: cell-based, Heterodera glycines; conditions: H. glycines 2nd stage juveniles, scored at 48 hours
Method: as §1, §2

[8] = test system: M. javanica; assay: as above; type: cell-based, Meloidogyne javanica; conditions: M. javanica 2nd stage juveniles, scored at 48 hours
Method: as §1, §2

[9] = test system: P. scribneri; assay: as above; type: cell-based, Pratylenchus scribneri; conditions: P. scribneri mixed stage
Method: as §1, §2

[10] = test system: M. incognita; assay: as above; type: cell-based, Meloidogyne incognita; conditions: M. incognita 2nd stage juveniles, scored at 48 hours
Method: as §1, §2

## CCCCCCC(O)C/C=C/CCCCCCCC(=O)OC (stereo not drawn) [Ricinelaidic, 12-hydroxy-trans-9-octadecenoic acid methyl ester]
[1]
  Breadth of nematicidal activity (in words): favorable nematicidal activity against a wide spectrum of divergent nematode genera
[1]; concentrations of 0.1% and 0.01%
  Nematicidal activity (in words): strongly nematicidal
[2]
  Visible effects on tomato seedlings: none of the tomatoes treated with the other fatty acid methyl ester emulsions showed visible effects
[3]; 24 hrs post-inoculation, 0.0008%
  percentage of non-motile microfilaria: 0%
[3]; 24 hrs post-inoculation, 0.0016%
  percentage of non-motile microfilaria: 19.1%
[3]; 24 hrs post-inoculation, 0.003%
  percentage of non-motile microfilaria: 100%
[3]; 24 hrs post-inoculation, 0.005%
  percentage of non-motile microfilaria: 100%
[3]; 24 hrs post-inoculation, 0.0067%
  percentage of non-motile microfilaria: 100%
[3]; 24 hrs post-inoculation, 0.008%
  percentage of non-motile microfilaria: 100%
[3]; 48 hrs post-inoculation, 0.0008%
  percentage of non-motile microfilaria: 0%
[3]; 48 hrs post-inoculation, 0.0016%
  percentage of non-motile microfilaria: 49.4%
[3]; 48 hrs post-inoculation, 0.003%
  percentage of non-motile microfilaria: 100%
[3]; 48 hrs post-inoculation, 0.005%
  percentage of non-motile microfilaria: 100%
[3]; 48 hrs post-inoculation, 0.0067%
  percentage of non-motile microfilaria: 100%
[3]; 48 hrs post-inoculation, 0.008%
  percentage of non-motile microfilaria: 100%
[3]; tween-based emulsions
  Microfilarialcidal activity (in words): strong microfilarialcidal activity
[4]; 0.001% solution
  % Worm Death (24 hr): 75%
[4]; 0.01% solution
  % Worm Death (24 hr): 100%
[4]; 0.1% solution
  % Worm Death (24 hr): 100%
[5]; 0.001% solution
  % Worm Death (24 hr): 60%
[5]; 0.01% solution
  % Worm Death (24 hr): 100%
[5]; 0.1% solution
  % Worm Death (24 hr): 100%
[6]; 0.01% solution
  % Worm Death (24 hr): 100%
[6]; 0.1% solution
  % Worm Death (24 hr): 100%
[7]; 0.001% solution
  % Worm Death (24 hr): 100%
[7]; 0.01% solution
  % Worm Death (24 hr): 100%
[7]; 0.1% solution
  % Worm Death (24 hr): 100%
[8]; 0.001% solution
  % Worm Death (48 hr): ˜60%
[8]; 0.01% solution
  % Worm Death (48 hr): 100%
[8]; 0.1% solution
  % Worm Death (48 hr): 100%
[9]; 0.01% solution
  % Worm Death (24 hr): ˜40%
[9]; 0.1% solution
  % Worm Death (24 hr): ˜70%
[10]; 0.001% solution
  % Worm Death (24 hr): 97%
[10]; 0.01% solution
  % Worm Death (24 hr): ˜99%
[10]; 0.1% solution
  % Worm Death (24 hr): ˜99%
